Data on 19 compounds can be found in patent publication US20240316051A1, “A PHARMACEUTICAL COMBINATION AND USE THEREOF” (Ascentage Pharma (Suzhou) Co., Ltd., priority 2021, published 2024).

Molecules are shown by their SMILES. Bounds are passed on as bounds.

T1 sequence (O75530 whole entry): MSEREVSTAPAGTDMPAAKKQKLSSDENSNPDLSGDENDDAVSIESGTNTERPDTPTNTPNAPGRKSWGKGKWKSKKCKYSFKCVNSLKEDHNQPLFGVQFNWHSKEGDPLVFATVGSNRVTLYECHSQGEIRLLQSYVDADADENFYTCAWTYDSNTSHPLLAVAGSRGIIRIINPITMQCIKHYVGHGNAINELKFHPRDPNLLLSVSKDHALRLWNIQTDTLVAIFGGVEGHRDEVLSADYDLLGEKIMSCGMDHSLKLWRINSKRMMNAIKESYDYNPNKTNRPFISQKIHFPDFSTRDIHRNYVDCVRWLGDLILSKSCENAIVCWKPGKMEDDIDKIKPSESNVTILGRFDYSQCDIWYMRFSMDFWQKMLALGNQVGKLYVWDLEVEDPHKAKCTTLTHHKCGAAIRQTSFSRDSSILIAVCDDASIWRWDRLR

One assay concerns the target T1, EED (1-441)-His protein (Homo sapiens, UniProt O75530).
T1 construct: 20 nM EED (1-441)-His protein
Nature of the assay: EED-H3K27Me3 peptide competition binding assay by AlphaScreen. The note with it: IC50 class, Table 4B, read-out: Alpha screen. The method, boiled down:
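EED(1-441)-His was preincubated 15 min with compound, then biotin-H3K27Me3(19-33) peptide added for 30 min; both were added as 20 nM solutions in 25 mM HEPES pH 8, 0.02% Tween-20, 0.5% BSA. Ni-chelate acceptor and streptavidin donor beads (10 μg/ml each final) were added for 1 h in the dark at RT. Signal read at 615 nm (680 nm excitation), normalised to controls and fitted to dose-response for IC50.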
Consider `Cc1cc2c(cn1)-c1cnc(NCc3c(F)ccc4c3CCO4)n3cnc(c13)C(=O)N(CC(F)F)C2` [E 9, 4-(2,2-difluoroethyl)-12-(((5-fluoro-2,3-dihydro-benzofuran-4-yl)methyl)amino)-7-methyl-4,5-dihydro-3H-2,4,8,11,12a-pentaazabenzo[4,5] cycloocta[1,2,3-cd]inden-3-one], for which the IC50 is below 10 nM. Take `O=C1c2ncn3c(NCc4c(F)ccc5c4CCO5)ncc(c23)-c2ccc(CC3COCCO3)nc2CN1CC(F)(F)F` (stereo not shown) [E 49, 7-((1,4-dioxan-2-yl)methyl)-12-(((5-fluoro-2,3-dihydrobenzofuran-4-yl)methyl)amino)-4-(2,2,2-trifluoroethyl)-4,5-dihydro-3H-2,4,6,11,12a-pentaazabenzo[4,5]cycloocta[1,2,3-cd] inden-3-one]: the IC50 is below 10 nM.

Turning to `Cc1ccc2c(n1)Cn1ccnc1-c1ncn3c(NCc4c(F)ccc5c4CCO5)ncc-2c13` [E 34, N-((5-fluoro-2,3-dihydrobenzofuran-4-yl)methyl)-8-methyl-6H-2,3,5a,7,12,13a-hexaazabenzo[4,5] cyclopenta[7,8]cycloocta[1,2,3-cd]inden-13-amine], the IC50 fell in the range of 10 to 100 nM. Consider `Cc1ccc2c(n1)Cc1conc1-c1ncn3c(NCc4c(F)ccc5c4CCO5)ncc-2c13` [E 36, N-((5-fluoro-2,3-dihydrobenzofuran-4-yl)methyl)-8-methyl-6H-4-oxa-2,3,7,12,13a-pentaazabenzo [4,5]cyclopenta[7,8]cycloocta[1,2,3-cd]inden-13-amine], for which the IC50 fell in the range of 10 to 100 nM.

Consider `CC(C)(C)c1ccc2c(n1)CN(CC(F)(F)F)C(=O)c1ncn3c(NCc4c(F)ccc5c4CCO5)ncc-2c13` [E 50, 7-(tert-butyl)-12-(((5-fluoro-2,3-dihydrobenzofuran-4-yl)methyl)amino)-4-(2,2,2-trifluoroethyl)-4,5-dihydro-3H-2,4,6,11,12a-pentaazabenzo[4,5] cycloocta[1,2,3-cd]inden-3-one], for which the IC50 is below 10 nM.

Still in this assay, the particulars now being: Table 4A, read-out: Alpha screen.
`O=C1OCc2ccc(C(F)(F)F)cc2-c2cnc(NCc3c(F)ccc4c3CCO4)n3cnc1c23` [Compound 24, 12-(((5-fluoro-2,3-dihydrobenzofuran-4-yl)methyl)amino)-8-(trifluoromethyl)-3H,5H-4-oxa-2,11,12a-triazabenzo[4,5]cycloocta[1,2,3-cd]inden-3-one]: the IC50 came out at 4.75 nM. On to `O=C1NCc2nc(C(F)(F)F)ccc2-c2cnc(NCc3c(F)ccc4c3CCO4)n3cnc1c23` [Compound 25, 12-(((5-fluoro-2,3-dihydrobenzofuran-4-yl)methyl)amino)-7-(trifluoromethyl)-4,5-dihydro-3H-2,4,6, 11,12a-pentaazabenzo[4,5]cycloocta[1,2,3-cd] inden-3-one], for which the IC50 turned out to be 3.31 nM. Still for that read-out and setting: next, `O=C1OCc2cc(C(F)(F)F)ncc2-c2cnc(NCc3c(F)ccc4c3CCO4)n3cnc1c23` [Compound 13, 12-(((5-fluoro-2,3-dihydrobenzofuran-4-yl)methyl)amino)-7-(trifluoromethyl)-3H,5H-4-oxa-2,8,11, 12a-tetraazabenzo[4,5]cycloocta[1,2,3-cd]inden-3-one]: 1.09 nM; `O=C1OCc2cc(F)ccc2-c2cnc(NCc3c(F)ccc4c3CCO4)n3cnc1c23` [Compound 7, 7-fluoro-12-(((5-fluoro-2,3-dihydrobenzofuran-4-yl)methyl)amino)-3H,5H-4-oxa-2,11,12a-triazabenzo [4,5]cycloocta[1,2,3-cd]inden-3-one]: 0.61 nM.

With `Cc1ccc2c(n1)COC(=O)c1ncn3c(NCc4c(F)ccc5c4CCO5)ncc-2c13` [Compound 18, 12-(((5-fluoro-2,3-dihydrobenzofuran-4-yl)methyl)amino)-7-methyl-3H,5H-4-oxa-2,6,11,12a-tetraazabenzo[4,5]cycloocta[1,2,3-cd]inden-3-one], the IC50 is 0.7 nM. Regarding `CC1(O)CC(CN2Cc3cc(C(F)(F)F)ncc3-c3cnc(NCc4c(F)ccc5c4CCO5)n4cnc(c34)C2=O)C1` (stereo not shown) [Compound 49, 12-(((5-fluoro-2,3-dihydrobenzofuran-4-yl)methyl)amino)-4-((3-hydroxy-3-methylcyclobutyl)methyl)-7-(trifluoromethyl)-4,5-dihydro-3H-2,4,8,11,12a-pentaazabenzo[4,5]cycloocta[1,2,3-cd]inden-3-one], the IC50 turned out to be 1.81 nM. For the compound `O=C1c2ncn3c(NCc4c(F)ccc5c4CCO5)ncc(c23)-c2ccc(C(F)(F)F)nc2CN1C1CC1` [Compound 41, 4-cyclopropyl-12-(((5-fluoro-2,3-dihydrobenzofuran-4-yl)methyl)amino)-7-(trifluoromethyl)-4,5-dihydro-3H-2,4,6,11,12a-pentaazabenzo[4,5] cycloocta[1,2,3-cd]inden-3-one], the IC50 was 0.6 nM. Consider `O=C1NCc2cc(C(F)(F)F)ncc2-c2cnc(NCc3c(F)ccc4c3CCO4)n3cnc1c23` [Compound 22, 12-(((5-fluoro-2,3-dihydrobenzofuran-4-yl)methyl)amino)-7-(trifluoromethyl)-4,5-dihydro-3H-2,4,8, 11,12a-pentaazabenzo[4,5]cycloocta[1,2,3-cd] inden-3-one], for which the IC50 stood at 0.67 nM. Still for that read-out and setting: next, `O=C1NCc2cc(C(F)(F)F)ccc2-c2cnc(NCc3c(F)ccc4c3CCO4)n3cnc1c23` [Compound 19, 12-(((5-fluoro-2,3-dihydrobenzofuran-4-yl)methyl)amino)-7-(trifluoromethyl)-4,5-dihydro-3H-2,4,11, 12a-tetraazabenzo[4,5]cycloocta[1,2,3-cd]inden-3-one]: 1.13 nM; `O=C1NCc2ncccc2-c2cnc(NCc3c(F)ccc4c3CCO4)n3cnc1c23` [Compound 16, 12-(((5-fluoro-2,3-dihydrobenzofuran-4-yl)methyl)amino)-4,5-dihydro-3H-2,4,6,11,12a-pentaazabenzo[4,5]cycloocta[1,2,3-cd]inden-3-one]: 0.7 nM; `O=C1c2ncn3c(NCc4c(F)ccc5c4CCO5)ncc(c23)-c2ccc(C(F)(F)F)nc2CN1CC1CCOCC1` [Compound 46, 12-(((5-fluoro-2,3-dihydrobenzofuran-4-yl)methyl)amino)-4-((tetrahydro-2H-pyran-4-yl)methyl)-7-(trifluoromethyl)-4,5-dihydro-3H-2,4,6,11, 12a-pentaazabenzo[4,5]cycloocta[1,2,3-cd]inden-3-one]: 1.07 nM. Consider `O=C1OCc2cc(F)ccc2-c2cnc(NCc3cccc4c3CCO4)n3cnc1c23` [Compound 9, 12-(((2,3-dihydrobenzofuran-4-yl)methyl)amino)-7-fluoro-3H,5H-4-oxa-2,11,12a-triazabenzo[4,5] cycloocta[1,2,3-cd]inden-3-one], for which the IC50 came out at 0.84 nM. Still for that read-out and setting: as for `O=C1c2ncn3c(NCc4c(F)ccc5c4CCO5)ncc(c23)-c2ccc(C(F)(F)F)nc2CN1CC1COCCO1` (stereo not shown) [Compound 35, 4-((1,4-dioxan-2-yl)methyl)-12-(((5-fluoro-2,3-dihydrobenzofuran-4-yl)methyl)amino)-7-(trifluoro-methyl)-4,5-dihydro-3H-2,4,6,11,12a-pentaazabenzo [4,5]cycloocta[1,2,3-cd]inden-3-one], the figure is 1.16 nM; as for `Cn1ncc2c1CNC(=O)c1ncn3c(NCc4c(F)ccc5c4CCO5)ncc-2c13` [Compound 53, 11-(((5-fluoro-2,3-dihydrobenzofuran-4-yl)methyl)amino)-6-methyl-5,6-dihydro-2,4,6,7,10,11a-hexaazacyclopenta[4,5]cycloocta[1,2,3-cd]inden-3(4H)-one], 3.96 nM.
